The subject of one assay is H1975 cells. Briefly: Xenograft mouse model, human NSCLC with EGFR mutations. The format is in vivo, mice. As for the experimental part:
(§1) Several xenograft mouse models were prepared: • 1) imatinib-resistant leukemia by subcutaneously implanting Ba/F3 T315I cells (1×10^8 cell/mL in sterile PBS), into the right flank of athymic nude male mice (HSD, 6-7 weeks old). When the tumor volume reached approximately 50 mm^3, mice were assigned randomly to either vehicle alone or OR0512 treatment groups (five mice per group). Mice were treated with either vehicle (DMSO) or OR0512 (40 mg/kg q.d.; per os for 11 consecutive days). • 2) human pancreatic adenocarcinoma model by subcutaneously implanting BxPC-3 cells (1×10^7 cell/mL in sterile PBS), into the right flank of athymic nude male mice (HSD, 6-7 weeks old). […]
(§2) Tumor volumes in mm^3 were determined three times a week with a digital caliper and calculated using the following formula: Tumor Volume (mm^3)=length (mm)×width (mm)×width (mm)×½. Body weight was measured three times a week, and mice were observed daily for monitoring signs of stress to detect possible toxicities. […] Data were analyzed with Prism 5.0b (GraphPad Software) by one-way ANOVA with Bonferroni post hoc. Tumor Growth Inibition (TGI) is calculated as the percent decrease of tumor growth at the end of the study in the OR0512 treatment group in comparison to the vehicle alone treatment group.

A further assay has as its target T1, BRAF (Homo sapiens, UniProt P15056).
T1 construct: purchased Invitrogen
Briefly: In vitro kinase assay (Z′-LYTE). The note with it: compound 100 nM; ATP 100 μM; read-out: % of inhibition of the kinase compared to the control. The format is biochemical. In a few lines:
(§3)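 Read-out is a ratiometric FRET signal (donor/acceptor emission, 400 nm excitation) from a doubly labelled peptide, whose cleavage by a development protease depends on its phosphorylation state. ATP used at apparent Km in HEPES pH 7.5 buffer with MgCl2; compounds at 100 nM, or 10 μM for ABL T315I.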

The target in a further assay is T2, FGFR2 (Homo sapiens, UniProt P21802).
T2 construct: purchased Invitrogen
T2 sequence (P21802 22-821): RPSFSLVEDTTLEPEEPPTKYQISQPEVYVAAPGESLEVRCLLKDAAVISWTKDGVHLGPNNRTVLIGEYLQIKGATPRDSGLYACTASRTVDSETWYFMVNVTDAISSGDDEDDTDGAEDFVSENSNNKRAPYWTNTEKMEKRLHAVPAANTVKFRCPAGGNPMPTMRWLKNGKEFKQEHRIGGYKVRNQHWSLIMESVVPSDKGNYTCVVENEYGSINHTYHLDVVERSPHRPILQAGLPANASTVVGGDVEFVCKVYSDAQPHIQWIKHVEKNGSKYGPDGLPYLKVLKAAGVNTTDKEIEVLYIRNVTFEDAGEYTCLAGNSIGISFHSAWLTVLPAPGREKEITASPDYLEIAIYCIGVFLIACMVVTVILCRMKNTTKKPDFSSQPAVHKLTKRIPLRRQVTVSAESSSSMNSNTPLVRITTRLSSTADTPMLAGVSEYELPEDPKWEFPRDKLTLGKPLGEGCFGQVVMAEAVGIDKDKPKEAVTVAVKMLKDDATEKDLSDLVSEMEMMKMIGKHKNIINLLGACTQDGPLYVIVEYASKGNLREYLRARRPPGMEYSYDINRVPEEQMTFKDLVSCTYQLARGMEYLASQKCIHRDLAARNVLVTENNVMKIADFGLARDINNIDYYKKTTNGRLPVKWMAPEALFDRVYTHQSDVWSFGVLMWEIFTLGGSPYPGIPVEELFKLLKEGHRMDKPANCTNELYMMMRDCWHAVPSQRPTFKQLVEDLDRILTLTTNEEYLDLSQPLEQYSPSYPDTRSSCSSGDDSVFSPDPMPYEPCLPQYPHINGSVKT
Nature of the assay: In vitro kinase assay (Z′-LYTE). In kind it is biochemical. The conditions noted are these: read-out: % of inhibition of the kinase compared to the control. In a few lines:
as §3

A further assay addresses T3, BRAF V600E (Homo sapiens, UniProt P15056, V600E).
T3 construct: purchased Invitrogen
Nature of the assay: In vitro kinase assay (Z′-LYTE). In kind it is biochemical. The note with it: read-out: percent inhibition of the kinase compared to the control. In a few lines:
as §3

In another assay the target is T4, MAPK14 (Homo sapiens, UniProt Q16539).
T4 construct: purchased Invitrogen
T4 sequence (Q16539 whole entry): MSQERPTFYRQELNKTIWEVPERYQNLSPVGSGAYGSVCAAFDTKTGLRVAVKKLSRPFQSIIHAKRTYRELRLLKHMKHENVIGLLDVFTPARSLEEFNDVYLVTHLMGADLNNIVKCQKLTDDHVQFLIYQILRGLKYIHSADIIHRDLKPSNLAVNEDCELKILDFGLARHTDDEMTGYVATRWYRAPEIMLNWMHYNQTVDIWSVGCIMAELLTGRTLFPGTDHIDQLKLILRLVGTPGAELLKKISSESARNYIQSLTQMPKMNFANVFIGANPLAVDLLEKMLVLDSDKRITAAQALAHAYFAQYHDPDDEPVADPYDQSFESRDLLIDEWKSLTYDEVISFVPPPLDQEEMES
Nature of the assay: In vitro kinase assay (Z′-LYTE). In kind it is biochemical. The conditions noted are these: read-out: percent inhibition of the kinase compared to the control. In a few lines:
as §3

Another assay addresses T5, PDGFRB (Homo sapiens, UniProt P09619).
T5 construct: purchased Invitrogen
Nature of the assay: In vitro kinase assay (Z′-LYTE). The format is biochemical. The conditions noted are these: read-out: % of inhibition of the kinase compared to the control. In a few lines:
as §3

The target of the next assay is T6, FRK (Homo sapiens, UniProt P42685).
T6 construct: purchased Invitrogen
T6 sequence (P42685 whole entry): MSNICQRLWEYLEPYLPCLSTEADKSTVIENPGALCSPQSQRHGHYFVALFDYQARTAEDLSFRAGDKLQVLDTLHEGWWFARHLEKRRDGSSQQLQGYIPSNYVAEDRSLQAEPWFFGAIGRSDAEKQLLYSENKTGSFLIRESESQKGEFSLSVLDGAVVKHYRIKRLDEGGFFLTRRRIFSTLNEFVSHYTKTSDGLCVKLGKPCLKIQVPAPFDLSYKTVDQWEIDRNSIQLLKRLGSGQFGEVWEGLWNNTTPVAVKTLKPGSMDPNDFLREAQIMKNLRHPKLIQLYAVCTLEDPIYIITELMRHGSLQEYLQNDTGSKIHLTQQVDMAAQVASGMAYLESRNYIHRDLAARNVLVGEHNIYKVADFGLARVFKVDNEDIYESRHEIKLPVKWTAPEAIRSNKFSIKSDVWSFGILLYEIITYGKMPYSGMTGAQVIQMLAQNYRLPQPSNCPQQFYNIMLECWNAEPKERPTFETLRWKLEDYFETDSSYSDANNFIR
Nature of the assay: In vitro kinase assay (Z′-LYTE). In kind it is biochemical. The note with it: read-out: percent inhibition of the kinase compared to the control. In a few lines:
as §3

The target in a further assay is T7, ABL (Homo sapiens, UniProt P00519).
T7 construct: purchased Invitrogen
T7 sequence (P00519 whole entry): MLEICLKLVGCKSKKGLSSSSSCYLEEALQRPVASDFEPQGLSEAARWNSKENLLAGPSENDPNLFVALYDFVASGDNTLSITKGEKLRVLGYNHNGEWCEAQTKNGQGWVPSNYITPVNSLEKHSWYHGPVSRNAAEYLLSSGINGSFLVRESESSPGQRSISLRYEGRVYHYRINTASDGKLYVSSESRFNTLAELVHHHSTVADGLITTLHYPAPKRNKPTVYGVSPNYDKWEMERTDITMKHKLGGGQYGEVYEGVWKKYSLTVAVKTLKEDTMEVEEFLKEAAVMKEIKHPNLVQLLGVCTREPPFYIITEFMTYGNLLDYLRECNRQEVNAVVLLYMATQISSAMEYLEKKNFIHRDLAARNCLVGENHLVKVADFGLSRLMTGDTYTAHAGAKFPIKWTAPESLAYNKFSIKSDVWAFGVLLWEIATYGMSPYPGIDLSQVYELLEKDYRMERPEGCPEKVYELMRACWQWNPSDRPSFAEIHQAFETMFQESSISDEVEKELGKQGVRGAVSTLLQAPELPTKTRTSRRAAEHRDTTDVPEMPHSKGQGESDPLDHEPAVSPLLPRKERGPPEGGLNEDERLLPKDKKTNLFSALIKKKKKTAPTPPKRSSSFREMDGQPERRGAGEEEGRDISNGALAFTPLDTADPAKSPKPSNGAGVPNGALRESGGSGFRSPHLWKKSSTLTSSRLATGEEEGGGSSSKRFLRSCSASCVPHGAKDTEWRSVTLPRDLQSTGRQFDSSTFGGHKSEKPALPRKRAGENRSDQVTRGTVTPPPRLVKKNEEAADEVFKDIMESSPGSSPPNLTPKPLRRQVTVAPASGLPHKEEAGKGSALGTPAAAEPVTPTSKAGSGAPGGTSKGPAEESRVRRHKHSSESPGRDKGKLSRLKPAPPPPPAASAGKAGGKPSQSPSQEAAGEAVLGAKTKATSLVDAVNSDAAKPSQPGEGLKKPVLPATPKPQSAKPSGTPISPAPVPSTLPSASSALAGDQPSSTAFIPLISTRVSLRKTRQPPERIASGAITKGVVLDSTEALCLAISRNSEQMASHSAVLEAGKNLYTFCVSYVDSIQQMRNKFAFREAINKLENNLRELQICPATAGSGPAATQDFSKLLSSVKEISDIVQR
Briefly: In vitro kinase assay (Z′-LYTE). The format is biochemical. The conditions noted are these: read-out: % of inhibition of the kinase compared to the control.

A further assay concerns the target T8, EPHA2 (Homo sapiens, UniProt P29317).
T8 construct: purchased Invitrogen
Briefly: In vitro kinase assay (Z′-LYTE). The format is biochemical. The note with it: read-out: percent inhibition of the kinase compared to the control. In a few lines:
as §3

A further assay has as its target T9, LYN A (Homo sapiens, UniProt P07948).
T9 construct: purchased Invitrogen
Nature of the assay: In vitro kinase assay (Z′-LYTE). In kind it is biochemical. The note with it: read-out: percent inhibition of the kinase compared to the control. In a few lines:
as §3

A further assay has as its target T10, FLT3 (Homo sapiens, UniProt P36888).
T10 construct: purchased Invitrogen
Briefly: In vitro kinase assay (Z′-LYTE). The format is biochemical. The conditions noted are these: read-out: percent inhibition of the kinase compared to the control. In a few lines:
as §3

A further assay addresses T11, ABL2 (Homo sapiens, UniProt P42684).
T11 construct: purchased Invitrogen
Briefly: In vitro kinase assay (Z′-LYTE). In kind it is biochemical. The conditions noted are these: read-out: percent inhibition of the kinase compared to the control. In a few lines: as §3

The next assay relates to Ba/F3 T315I cells. Briefly: Xenograft mouse model, imatinib-resistant leukemia (CML). In kind it is in vivo, mice. The method, then:
as §1, §2

Another assay relates to BxPC-3 cells. Briefly: Xenograft mouse model, human pancreatic adenocarcinoma. The format is in vivo, mice. The method, then: as §1, §2
For the next assay, the system named is HepG2 cells. Briefly: Xenograft mouse model, human hepatocellular carcinoma. The format is in vivo, mice. As for the experimental part: as §1, §2
In general terms: In xenograft studies the graft and the host belong to different species.

SMILES strings stand for the structures.

T9 sequence (P07948 whole entry): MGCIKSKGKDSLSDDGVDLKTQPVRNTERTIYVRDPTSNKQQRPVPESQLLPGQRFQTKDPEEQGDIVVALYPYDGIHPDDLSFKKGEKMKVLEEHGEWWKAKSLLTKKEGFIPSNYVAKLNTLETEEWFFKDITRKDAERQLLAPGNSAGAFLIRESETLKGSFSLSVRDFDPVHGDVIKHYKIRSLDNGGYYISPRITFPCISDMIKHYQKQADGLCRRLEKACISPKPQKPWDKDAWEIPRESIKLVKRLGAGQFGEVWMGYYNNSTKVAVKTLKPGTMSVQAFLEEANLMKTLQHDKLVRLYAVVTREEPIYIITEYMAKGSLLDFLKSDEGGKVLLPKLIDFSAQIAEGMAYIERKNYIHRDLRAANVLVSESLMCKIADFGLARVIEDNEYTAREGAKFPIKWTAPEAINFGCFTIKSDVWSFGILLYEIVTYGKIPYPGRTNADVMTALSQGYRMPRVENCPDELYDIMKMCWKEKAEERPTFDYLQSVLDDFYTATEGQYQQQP
T8 sequence (P29317 24-976): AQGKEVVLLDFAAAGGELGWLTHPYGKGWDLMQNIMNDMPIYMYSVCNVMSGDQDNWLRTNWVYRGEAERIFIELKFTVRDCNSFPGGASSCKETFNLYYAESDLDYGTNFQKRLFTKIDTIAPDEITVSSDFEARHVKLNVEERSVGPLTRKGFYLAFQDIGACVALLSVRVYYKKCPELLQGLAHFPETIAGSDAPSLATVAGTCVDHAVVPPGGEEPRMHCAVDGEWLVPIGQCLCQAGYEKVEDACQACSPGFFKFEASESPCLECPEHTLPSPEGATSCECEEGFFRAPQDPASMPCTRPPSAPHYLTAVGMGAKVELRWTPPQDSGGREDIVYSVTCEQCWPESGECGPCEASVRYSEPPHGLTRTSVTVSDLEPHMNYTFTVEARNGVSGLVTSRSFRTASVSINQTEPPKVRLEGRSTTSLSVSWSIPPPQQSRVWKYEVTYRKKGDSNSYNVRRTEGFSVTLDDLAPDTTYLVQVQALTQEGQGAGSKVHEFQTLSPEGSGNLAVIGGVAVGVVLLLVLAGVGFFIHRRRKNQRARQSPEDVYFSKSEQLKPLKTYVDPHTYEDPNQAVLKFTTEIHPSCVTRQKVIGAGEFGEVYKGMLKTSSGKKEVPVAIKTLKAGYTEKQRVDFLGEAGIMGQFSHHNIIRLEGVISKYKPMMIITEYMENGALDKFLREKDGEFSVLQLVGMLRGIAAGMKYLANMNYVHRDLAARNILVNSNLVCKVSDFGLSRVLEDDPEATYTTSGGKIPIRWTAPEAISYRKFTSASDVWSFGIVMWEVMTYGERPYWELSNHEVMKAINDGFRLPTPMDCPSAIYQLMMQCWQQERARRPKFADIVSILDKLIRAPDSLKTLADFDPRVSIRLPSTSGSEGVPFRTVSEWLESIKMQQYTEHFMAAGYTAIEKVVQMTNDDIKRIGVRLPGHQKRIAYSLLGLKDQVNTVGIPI
T3 sequence (P15056 whole entry V600E): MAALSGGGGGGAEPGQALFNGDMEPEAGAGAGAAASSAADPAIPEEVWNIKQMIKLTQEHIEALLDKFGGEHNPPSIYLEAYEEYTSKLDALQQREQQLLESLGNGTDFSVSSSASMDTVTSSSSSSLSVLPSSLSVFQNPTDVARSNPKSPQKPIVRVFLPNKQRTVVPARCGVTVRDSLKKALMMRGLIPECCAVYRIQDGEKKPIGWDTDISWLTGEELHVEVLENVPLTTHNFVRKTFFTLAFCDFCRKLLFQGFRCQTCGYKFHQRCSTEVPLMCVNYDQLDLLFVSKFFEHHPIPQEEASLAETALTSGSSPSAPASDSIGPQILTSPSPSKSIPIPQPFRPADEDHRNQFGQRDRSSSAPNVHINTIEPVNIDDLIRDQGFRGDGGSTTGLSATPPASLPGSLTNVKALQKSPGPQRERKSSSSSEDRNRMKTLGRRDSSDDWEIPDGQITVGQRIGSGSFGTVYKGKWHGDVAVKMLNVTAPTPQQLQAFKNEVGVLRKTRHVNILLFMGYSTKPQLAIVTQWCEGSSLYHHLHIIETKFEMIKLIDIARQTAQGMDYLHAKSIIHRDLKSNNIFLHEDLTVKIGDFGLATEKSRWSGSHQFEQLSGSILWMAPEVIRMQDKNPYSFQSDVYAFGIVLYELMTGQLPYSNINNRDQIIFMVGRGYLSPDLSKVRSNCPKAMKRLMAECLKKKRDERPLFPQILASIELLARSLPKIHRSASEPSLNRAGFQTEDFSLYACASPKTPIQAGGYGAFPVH
T1 sequence (P15056 whole entry): as the sequence (P15056 whole entry V600E) above, with E600V counted along it

With `COC(=O)c1cc2cc(NCc3cc(NC(=O)c4ccc(CN5CCN(C)CC5)c(C(F)(F)F)c4)ccc3C)cnc2[nH]1` [OR0512], the “Tumor Growth Inhibition - TGI” value was found to be 73%** in the assay on H1975 cells (H1975 xenograft, mice, 20 mg/kg q.d. per os, 22 days, versus vehicle, **P < 0.05); 37% in the assay on Ba/F3 T315I cells (Ba/F3 T315I xenograft, mice, 40 mg/kg q.d. per os, 11 days, versus vehicle); 85%** with BxPC-3 cells (BxPC-3 xenograft, mice, 20 mg/kg q.d. per os, 32 days, versus vehicle, **P < 0.05); 69%** in the assay with HepG2 cells (HepG2 xenograft, mice, 20 mg/kg q.d. per os, 15 days, versus vehicle, **P < 0.05). Moreover, the “decrease of tumor growth (in words)” value is given as “significantly induced a decrease of tumor growth” in the assay on H1975 cells (xenografted mice, human NSCLC (mutated form of EGFR) model); “slight decrease of tumor growth” in the assay on Ba/F3 T315I cells (xenografted mice, imatinib-resistant CML model expressing Bcr-Abl T315I); “significantly induced a decrease of tumor growth” in the assay with BxPC-3 cells (xenografted mice, human pancreatic adenocarcinoma model); “significantly induced a decrease of tumor growth” with HepG2 cells (xenografted mice, human hepatocellular carcinoma model). The inhibition (commonly how much of the control response was suppressed) at 0.1 µM is no less than 50% on BRAF; no less than 50% on FGFR2; greater than 50% at BRAF V600E; greater than 50% at MAPK14; no less than 50% at PDGFRB; greater than 50% on FRK. Further, the inhibition at 0.1 µM on EPHA2, at LYN A, at FLT3 and at ABL2 was greater than 50% each time. The inhibition at 10 µM at ABL is no less than 50%.

(Values after US9493455B2, “Azaindole derivatives as inhibitors of protein kinases” (ORIBASE PHARMA, priority 2012, dated 2016).)
